From the supplement of paper PMC10307832

Legend:
Experiment in all cases: relative viability (nuclei count vs DMSO), 5 days (fraction); higher = more cells survive
[1] = compound: C1CC(C2=C(C1)C3=C(N2)C=CC(=C3)Cl)C(=O)N [Selisistat] + CC1(C)CCC(c2ccc(Cl)cc2)=C(CN2CCN(c3ccc(C(=O)NS(=O)(=O)c4ccc(N[C@H](CCN5CCOCC5)CSc5ccccc5)c(S(=O)(=O)C(F)(F)F)c4)cc3)CC2)C1 [Navitoclax] (partner 0.5 µM)
Procedure, shortened: (§1)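 Five library-drug doses in √10 steps were combined with a fixed anchor-drug dose, or a single drug was given alone, by pin tool to lung cancer cell lines in 1536-well plates the day after seeding. Nuclei were stained and counted after 5 days. Relative viability is the nuclei count in treated wells over that in vehicle wells, taken as the median of duplicate plates.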

[2] = compound: c1ccc2c(CCNc3ccc(Nc4ccncc4)cc3)c[nH]c2c1 [Serdemetan]
Procedure, shortened: (§2)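 Vehicle-anchored 1536-well plates of lung cancer cell lines, held overnight at 37 °C, were pinned with five library-drug doses (not always all listed) spaced by √10. No medium change followed over the next 5 days, after which the cells were fixed, permeabilised and Hoechst-stained together and imaged at 4×. Nuclei were counted with MetaXpress, and viability is treated-well nuclei over vehicle-well nuclei, taken as a median across plates. Plates passed with control CV below 25% and at least one doubling.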

[3] = compound: C1CC(C2=C(C1)C3=C(N2)C=CC(=C3)Cl)C(=O)N [Selisistat]
Procedure, shortened: as §2

[4] = compound: c1ccc2c(CCNc3ccc(Nc4ccncc4)cc3)c[nH]c2c1 [Serdemetan] + N=C(N)NC(=N)NCCc1ccccc1 [Phenformin] (partner 250 µM)
Procedure, shortened: as §1

Row | Cell Line | relative viability ([1]; first compound 0.4 µM) | relative viability ([1]; first compound 1.265 µM) | relative viability ([1]; first compound 4 µM) | relative viability ([1]; first compound 12.65 µM) | relative viability ([1]; first compound 40 µM) | relative viability ([2]; 0.04 µM) | relative viability ([2]; 0.1265 µM) | relative viability ([2]; 0.4 µM) | relative viability ([2]; 1.265 µM) | relative viability ([2]; 4 µM) | relative viability ([3]; 0.4 µM) | relative viability ([3]; 1.265 µM) | relative viability ([3]; 4 µM) | relative viability ([3]; 12.65 µM) | relative viability ([3]; 40 µM) | relative viability ([4]; first compound 0.04 µM) | relative viability ([4]; first compound 0.1265 µM) | relative viability ([4]; first compound 0.4 µM) | relative viability ([4]; first compound 1.265 µM) | relative viability ([4]; first compound 4 µM)
1 | Calu-6 | 0.832 | 0.779 | 0.84 | 0.82 | 0.789 | 1 | 1.02 | 1.02 | 0.875 | 0.677 | 1.03 | 0.965 | 0.99 | 0.976 | 1 | – | – | – | – | –
2 | LC-2-ad | 0.514 | 0.475 | 0.507 | 0.485 | 0.561 | 1 | 0.962 | 0.911 | 0.962 | 0.872 | 1.05 | 0.762 | 0.794 | 0.926 | 1.01 | 0.559 | 0.589 | 0.556 | 0.496 | 0.579
3 | CAL-12T | 1.19 | 1.04 | 1.16 | 1.22 | 1.14 | 0.967 | 1.05 | 1.01 | 0.932 | 0.927 | 0.964 | 0.987 | 0.747 | 0.881 | 1 | 0.508 | 0.632 | 0.502 | 0.562 | 0.561
4 | RERF-LC-KJ | 0.812 | 1.1 | 0.84 | 0.702 | 0.627 | 0.99 | 0.948 | 0.93 | 0.942 | 0.939 | 1.06 | 0.969 | 0.927 | 0.836 | 0.87 | 0.349 | 0.507 | 0.389 | 0.404 | 0.399
5 | NCI-H1650 | 1.16 | 1.41 | 1.14 | 1.31 | 1.12 | 0.916 | 0.892 | 0.788 | 0.759 | 0.688 | 0.823 | 0.844 | 0.829 | 0.905 | 0.911 | 0.424 | 0.462 | 0.268 | 0.391 | 0.285
6 | ABC-1 | – | – | – | – | – | 0.948 | 0.923 | 0.994 | 0.603 | 0.56 | 0.897 | 0.869 | 0.647 | 0.772 | 0.819 | 0.229 | 0.235 | 0.197 | 0.204 | 0.224
7 | NCI-H1299 | 1.1 | 1.08 | 1.01 | 1.05 | 1.04 | 1.01 | 1 | 0.975 | 0.895 | 0.754 | 1.05 | 1.03 | 1.04 | 1.02 | 1.01 | – | – | – | – | –
8 | EBC-1 | 0.526 | 0.416 | 0.433 | 0.448 | 0.459 | 0.903 | 0.931 | 0.943 | 0.857 | 0.722 | 0.994 | 0.963 | 1.01 | 0.956 | 0.954 | – | – | – | – | –
9 | NCI-H2342 | – | – | – | – | – | 1.17 | 1.13 | 1.08 | 0.84 | 0.69 | 1.06 | 0.881 | 0.908 | 0.94 | 0.928 | 0.597 | 0.538 | 0.628 | 0.537 | 0.393
10 | NCI-H650 | – | – | – | – | – | 0.896 | 0.889 | 0.934 | 0.878 | 0.764 | 0.948 | 0.868 | 1.08 | 0.886 | 1.06 | 0.417 | 0.44 | 0.506 | 0.403 | 0.481
11 | NCI-H358 | – | – | – | – | – | 0.897 | 0.905 | 0.901 | 0.81 | 0.798 | 0.989 | 0.925 | – | 1.06 | 0.976 | 0.302 | 0.324 | 0.273 | 0.286 | 0.308
12 | NCI-H1563 | – | – | – | – | – | 0.866 | 0.849 | 0.8 | 0.622 | 0.744 | 0.972 | 0.886 | 0.906 | 0.865 | 0.902 | 0.689 | 0.591 | 0.567 | 0.586 | 0.589
13 | SW 900 | – | – | – | – | – | 0.876 | 0.941 | 0.926 | 0.547 | 0.666 | 1 | 0.801 | 0.656 | 0.846 | 0.858 | 0.551 | 0.487 | 0.674 | 0.295 | 0.365
14 | IA-LM | 0.787 | 0.82 | 0.946 | 0.818 | 0.835 | 0.942 | 0.963 | 0.956 | 0.711 | 0.505 | 0.945 | 0.959 | 0.918 | 0.9 | 1.01 | – | – | – | – | –
15 | NCI-H1703 | 1.24 | 1.15 | 1.25 | 1.42 | 1.27 | 1.08 | 0.84 | 0.882 | 0.764 | 0.71 | 0.894 | 0.834 | 0.9 | 0.853 | 0.848 | – | – | – | – | –
16 | LCLC-103H | – | – | – | – | – | 0.993 | 1.01 | 0.995 | 0.877 | 1.04 | 1.06 | 1.05 | 0.819 | 0.947 | 0.988 | 0.336 | 0.352 | 0.343 | 0.349 | 0.322
17 | NCI-H1648 | – | – | – | – | – | – | 1.07 | 0.924 | 0.472 | 0.358 | 0.769 | 0.787 | 1.04 | 1.19 | 1.19 | – | – | – | – | –
